Assay results taken from US20230365563A1, “QUINAZOLINE COMPOUND AND APPLICATION THEREOF” (SHANGHAI PHARMACEUTICALS HOLDING CO., LTD., priority 2020, published 2023).
Structures can show the parent of a compound that is named as a salt.

What was measured:
KRAS-G12D and SOS1 = molecular target: T1, KRAS-G12D and SOS1 (Homo sapiens, UniProt P01116, G12D); test: Inhibition of KRAS-G12D/SOS1 binding (Cisbio binding kit, 665/615 ratio), Effect Embodiment A; conditions: read-out: GTP-KRAS-G12D:SOS1 IC50
T1 construct: purchased
T1 sequence (P01116 1-188 isoform P01116-2 G12D): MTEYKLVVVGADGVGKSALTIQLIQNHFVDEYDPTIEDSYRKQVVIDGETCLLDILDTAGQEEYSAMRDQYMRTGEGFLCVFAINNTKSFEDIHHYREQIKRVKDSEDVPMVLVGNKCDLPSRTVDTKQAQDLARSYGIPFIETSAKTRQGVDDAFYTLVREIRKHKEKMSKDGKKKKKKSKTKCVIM
In short: (§1)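 Duplicate wells received an eleven-point, threefold compound titration whose top point was the stock solution; final DMSO 1%.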

KRAS_G12D and cRAF = molecular target: T2, KRAS_G12D and cRAF (Homo sapiens, UniProt P01116, G12D); test: Inhibition of KRAS_G12D/cRAF binding (Cisbio binding kit, 665/615 ratio), Effect Embodiment B; conditions: read-out: GTP-KRAS-G12D:CRAF IC50
T2 construct: purchased
T2 sequence (P01116 1-188 isoform P01116-2 G12D): as above
In short: as §1

KRAS_WT and SOS1 = molecular target: T3, KRAS_WT and SOS1 (Homo sapiens, UniProt P01116); test: Inhibition of KRAS_WT/SOS1 binding (Cisbio binding kit, 665/615 ratio), Effect Embodiment C; conditions: read-out: GTP-KRAS-WT:SOS1 IC50
T3 construct: purchased
T3 sequence (P01116 1-188 isoform P01116-2): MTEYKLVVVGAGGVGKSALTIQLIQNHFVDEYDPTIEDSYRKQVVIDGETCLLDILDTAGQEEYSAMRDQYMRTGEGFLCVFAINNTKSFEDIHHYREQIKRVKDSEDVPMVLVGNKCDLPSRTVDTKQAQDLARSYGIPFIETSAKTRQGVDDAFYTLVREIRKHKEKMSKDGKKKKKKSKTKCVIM
In short: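 Compounds tested as 3-fold, 11-point dilutions in duplicate at 1% DMSO final against the KRAS_WT/SOS1 binding system. IC50 derived by nonlinear regression fit.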

| Structure (SMILES) | IC50 (KRAS-G12D and SOS1) | IC50 (KRAS_G12D and cRAF) | IC50 (KRAS_WT and SOS1) |
| --- | --- | --- | --- |
| CO[C@@H]1C[C@H]2CC[C@@H](C1)N2C[C@@H](C)COc1nc(N2CC3CCC(C2)N3)c2cc(Cl)c(-c3cc(O)cc4ccccc34)c(F)c2n1 (single isomer, unassigned) [Compound 224, 4-((S or R)-4-((1R,5S)-3,8-diazabicyclo[3.2.1]octan-3-yl)-6-chloro-8-fluoro-2-((R)-3-((1R,3S,5S)-3-methoxy-8-azabicyclo[3.2.1]octan-8-yl)-2-methylpropoxy)quinazolin-7-yl)naphthalen-2-ol diformate] | 0.0132 µM | 0.0186 µM | 1.35 µM |
| C[C@@H](COc1nc(N2CC3CCC(C2)N3)c2cc(Cl)c(-c3cc(O)cc4ccccc34)c(F)c2n1)CN1C[C@H](C)OC[C@@H]1C (single isomer, unassigned) [Compound 225, 4-((S or R)-4-((1R,5S)-3,8-diazabicyclo[3.2.1]octan-3-yl)-6-chloro-2-((R)-3-((2S,5S)-2,5-dimethylmorpholinyl)-2-methylpropoxy)-8-fluoroquinazolin-7-yl)naphthalenol formate] | 0.0172 µM | 0.0178 µM | 0.969 µM |
| CCc1c(F)ccc2cc(O)cc(-c3c(F)cc4c(N5CC6CCC(C5)N6)nc(OC[C@H](C)CN5C6CCC5COC6)nc4c3F)c12 (single isomer, unassigned) [Compound 229a, 4-((7S or 7R)-2-((2R)-3-(3-oxa-8-azabicyclo[3.2.1]octan-8-yl)-2-methylpropoxy)-4-((1R,5S)-3,8-diazabicyclo[3.2.1]octan-3-yl)-6,8-difluoroquinazolin-7-yl)-5-ethyl-6-fluoronaphththalen-2-ol formate] | 0.0164 µM | 0.0118 µM | 0.16 µM |
| C[C@@H](COc1nc(N2CC3CCC(C2)N3)c2cc(Cl)c(-c3cc(O)cc4ccccc34)c(F)c2n1)CN1C2CC3CC1CC(C2)O3 (single isomer, unassigned) [Compound 230, 4-((S or R)-2-((R)-3-((1R,3R,5R,7R)-2-oxa-6-azadamantan-6-yl)-2-methylpropoxy)-4-((1R,5S)-3,8-diazabicyclo[3.2.1]octan-3-yl)-6-chloro-8-fluoroquinazolin-7-yl)naphthalen-2-ol diformate] | 0.0157 µM | 0.0281 µM | 0.626 µM |
| CN(C)C(=O)OCC1CCC2(COc3nc(N4CC5CCC(C4)N5)c4cc(Cl)c(-c5cc(O)cc6ccccc56)c(F)c4n3)CCCN12 (single isomer, unassigned) [Compound 232a] | 0.0137 µM | 0.00779 µM | 0.0103 µM |
| C[C@@H](COc1nc(N2CC3CCC(C2)N3)c2cc(Cl)c(-c3cc(O)cc4ccccc34)c(F)c2n1)CN1C[C@@H](C)OC[C@H]1C (single isomer, unassigned) [Compound 236, 4-((S or R)-4-((1R,5S)-3,8-diazacyclo[3.2.1]octan-3-yl)-6-chloro-2-((R)-3-((2R,5R)-2,5-dimethylmorpholinyl)-2-methylpropoxy)-8-fluoroquinazolin-7-yl)naphthalen-2-ol formate] | 0.0191 µM | 0.015 µM | 0.309 µM |
| C[C@@H](COc1nc(N2CC3CCC(C2)N3)c2cc(Cl)c(-c3cc(O)cc4ccccc34)c(F)c2n1)CN1C[C@H](C)OC[C@H]1C (single isomer, unassigned) [Compound 237, 4-((S or R)-4-((1R,5S)-3,8-diazacyclo[3.2.1]octan-3-yl)-6-chloro-2-((R)-3-((2S,5R)-2,5-dimethylmorpholinyl)-2-methylpropoxy)-8-fluoroquinazolin-7-yl)naphthalen-2-ol formate] | 0.0195 µM | 0.0186 µM | 0.569 µM |
| C[C@@H](COc1nc(N2CC3CCC(C2)N3)c2cc(Cl)c(-c3cc(O)cc4ccccc34)c(F)c2n1)CN1CCOC[C@H]1C (single isomer, unassigned) [Compound 239, 4-((S or R)-4-((1R,5S)-3,8-diazacyclo[3.2.1]octyl-3-yl)-6-chloro-8-fluoro-2-((R)-2-methyl-3-((R)-3-methylmorpholinyl)propoxy)quinazolin-7-yl)naphthalen-2-ol formate] | 0.0153 µM | 0.0183 µM | 0.496 µM |
| C[C@@H](COc1nc(N2CC3CCC(C2)N3)c2cc(Cl)c(-c3cc(O)cc4ccccc34)c(F)c2n1)CN1CCOC2(CC2)C1 (single isomer, unassigned) [Compound 243, 4-((S or R)-4-((1R,5S)-3,8-diazabicyclo[3.2.1]octan-3-yl)-6-chloro-8-fluoro-2-((R)-2-methyl-3-(4-oxa-7-azaspiro[2.5]octan-7-yl)propoxy)quinazolin-7-yl)naphthalen-2-ol formate] | 0.0192 µM | 0.0375 µM | 1.25 µM |

More lines, in order of falling IC50 (KRAS-G12D and SOS1), values ahead:

| IC50 (KRAS-G12D and SOS1) | IC50 (KRAS_G12D and cRAF) | IC50 (KRAS_WT and SOS1) | Structure (SMILES) |
| --- | --- | --- | --- |
| 0.0524 µM | 0.149 µM | 1.77 µM | Oc1cc(-c2c(Cl)cc3c(N4CC5CCC(C4)N5)nc(OCCCN4C5CC6CC4CC(C5)O6)nc3c2F)c2ccccc2c1 (single isomer, unassigned) [Compound 235, 4-((S or R)-2-(3-((1R,3R,5R,7R)-2-oxa-6-azadamantan-6-yl)propoxy)-4-((1R,5S)-3,8-diazabicyclo[3.2.1]octan-3-yl)-6-chloro-8-fluoroquinazolin-7-yl)naphthalen-2-ol formate] |
| 0.0497 µM | 0.203 µM | 3.6 µM | C[C@@H]1CN(CCCOc2nc(N3CC4CCC(C3)N4)c3cc(Cl)c(-c4cc(O)cc5ccccc45)c(F)c3n2)CCO1 (single isomer, unassigned) [Compound 241, 4-((S or R)-4-((1R,5S)-3,8-diazacyclo[3.2.1]octan-3-yl)-6-chloro-8-fluoro-2-(3-((R)-2-methylmorpholinyl)propoxy)quinazolin-7-yl)naphthalen-2-ol formate] |
| 0.0433 µM | 0.155 µM | 3.08 µM | Oc1cc(-c2c(Cl)cc3c(N4CC5CCC(C4)N5)nc(OCCN4C5CC6CC4CC(C5)O6)nc3c2F)c2ccccc2c1 (single isomer, unassigned) [Compound 238, (S or R)-4-(2-(2-((1R,3R,5R,7R)-2-oxa-6-azadamantan-6-yl)ethoxy)-4-((1R,5S)-3,8-diazabicyclo[3.2.1]octan-3-yl)-6-chloro-8-fluoroquinazolin-7-yl)naphthalen-2-ol formate] |
| 0.0391 µM | 0.164 µM | 2.21 µM | Oc1cc(-c2c(Cl)cc3c(N4CC5CCC(C4)N5)nc(OCCCN4CCOC5(CC5)C4)nc3c2F)c2ccccc2c1 (single isomer, unassigned) [Compound 240, 4-((S or R)-2-(3-(4-oxa-7-azaspiro[2.5]octan-7-yl)propoxy)-4-((1R,5S)-3,8-diazacyclo[3.2.1]octan-3-yl)-6-chloro-8-fluoroquinazolin-7-yl)naphthalen-2-ol formate] |
| 0.0167 µM | 0.0234 µM | 0.593 µM | C[C@@H](COc1nc(N2CC3CCC(C2)N3)c2cc(Cl)c(-c3cc(O)cc(Cl)c3C3CC3)c(F)c2n1)CN1C2CCC1COC2 (single isomer, unassigned) [Compound 227, 3-((7S or 7R)-2-((2R)-3-(3-oxa-8-azabicyclo[3.2.1]octan-8-yl)-2-methylpropoxy)-4-((1R,5S)-3,8-diazabicyclo[3.2.1]octan-3-yl)-6-chloro-8-fluoroquinazolin-7-yl)-5-chloro-4-cyclopropylphenol formate] |
| 0.0142 µM | 0.0183 µM | 0.0923 µM | C[C@@H](COc1nc(N2CC3CCC(C2)N3)c2cc(Cl)c(-c3cc(O)cc4ccc(F)c(F)c34)c(F)c2n1)CN1C2CCC1COC2 (single isomer, unassigned) [Compound 228, ((4S or 4R) 4-(2-((2R)-3-(3-oxa-8-azabicyclo[3.2.1]octan-8-yl)-2-methylpropoxy)-4-((1R,5S)-3,8-diazabicyclo[3.2.1]octan-3-yl)-6-chloro-8-fluoroquinazolin-7-yl)-5,6-difluoronaphthalen-2-ol formate] |
| 0.0137 µM | 0.0233 µM | 0.731 µM | C[C@@H](COc1nc(N2CC3CCC(C2)N3)c2cc(Cl)c(-c3cc(O)cc4ccccc34)c(F)c2n1)CN1CCO[C@H](C)C1 (single isomer, unassigned) [Compound 242, 4-((S or R)-4-((1R,5S)-3,8-diazacyclo[3.2.1]octan-3-yl)-6-chloro-8-fluoro-2-((R)-2-methyl-3-((R)-2-methylmorpholinyl)propoxy)quinazolin-7-yl)naphthalen-2-ol formate] |
| 0.0118 µM | 0.00579 µM | 0.2 µM | C[C@@H](COc1nc(N2CC3CCC(C2)N3)c2cc(Cl)c(-c3cc(O)cc4ccc(F)cc34)c(F)c2n1)CN1C2CCC1COC2 (single isomer, unassigned) [Compound 234a, 4-((7S or 7R)-2-((2R)-3-(3-oxa-8-azabicyclo[3.2.1]octan-8-yl)-2-methylpropoxy)-4-((1R,5S)-3,8-diazabicyclo[3.2.1]octan-3-yl)-6-chloro-8-fluoroquinazolin-7-yl)-6-fluoronaphthalen-2-ol diformate] |
| 0.0091 µM | 0.00718 µM | 0.227 µM | CCc1c(F)ccc2cc(O)cc(-c3c(Cl)cc4c(N5CC6CCC(C5)N6)nc(OC[C@H](C)CN5C6CCC5COC6)nc4c3F)c12 (single isomer, unassigned) [Compound 233b, 4-((7R or 7S)-2-((2R)-3-(3-oxa-8-azabicyclo[3.2.1]octan-8-yl)-2-methylpropoxy)-4-((1R,5S)-3,8-diazabicyclo[3.2.1]octan-3-yl)-6-chloro-8-fluoroquinazolin-7-yl)-5-ethyl-6-fluoronaphthalen-2-ol formate] |
